The values that follow come from patent US20160375042A1, “USE OF CAMPTOTHECIN DERIVATIVE IN PREPARING PHARMACEUTICAL USED FOR TREATING MULTIPLE MYELOMA” (priority 2014, published 2016).

The test system of series [1] is S1 and S1-M1-80 (characteristic expression of ABCG2/BCRP). The series is described as follows: Anti-drug resistance test (MTT, resistance index). It is filed as cell-based. To be noted: S1-M1-80 (ABCG2/BCRP) versus S1 cells, 72 h, from IC50. The method, then:
Logarithmic growth phase S1 and S1-M1-80 (characteristic expression of ABCG2/BCRP) were prepared as cell suspension of 2.5×10^4 cells/ml and 6×10^4 cells/ml, and were seeded in into 96-well plates with 0.19 ml/well. After incubating in cell incubator for 24 hours at 37° C., 5% CO2, sample solutions in various concentrations were added at 0.01 ml/well. Stroke-physiological saline solution is used as control well. Each treatment is conducted in 3 parallel wells. The drugs were added and incubated additional 72 h hours. And 5 mg/ml of MTT is added at 0.02 ml/well before four hours of the end the incubation. The culture liquid is removed at the end of incubation. Each well was added 0.1 ml of DMSO and OD values were measured at wavelength of 540 nm and reference wavelength of 655 nm. The experiment was repeated three times. Equation 1 is used to calculate cell growth inhibition rate (IR); and Equation 2 is used to calculate resistance index. Bliss method is used to calculate the 50% inhibitory concentration (IC50).

Series [2] has as its system human multiple myeloma cells NCI-H929 xenografts. The series is described as follows: Tumor inhibitory effect on multiple myeloma cells NCI-H929 xenografts in nude mice. Type of series: in vivo, BALB/c nude mouse. Here is the method:
Multiple myeloma cells were routinely passaged in vitro, inoculated in 40 6-7-week-old BALB/c nude mouse, each mouse was subcutaneously injected human multiple myeloma cells NCI-H929 at its right axillary. Weighed after two days. The mice were randomly divided into five groups, eight in each group. Each group was dosed as follows: • i. physiological saline control group • ii. Topotecan positive control group, 2 mg/kg, once every 4 days, intraperitoneal injection • iii. WQ1001, high-dose group, 35 mg/kg, once every 4 days, intraperitoneal injection • iv. WQ1001, middle dose group, 25 mg/kg, once every 4 days, intraperitoneal injectionv. v. WQ1001, low dose group, 18 mg/kg, once every 4 days, intraperitoneal injection
Body weight(BW) as well as long diameter and short diameter of tumors were measured every two days. Tumor volume was calculated according to the Equation 1. On the 11th day after inoculation, the mice were weighed, long diameter and short diameter of tumors were measured, and relative tumor volume (RTV) was calculated according to Equation 2. Mice were sacrificed by cervical dislocation and the tumor mass was stripped and weighed. Inhibition rate (IR) was calculated according to the Equation 3. RTV and tumor weight (TW) for each group were analyzed through T-test.

A short description of series [3]: Water-solubility test of compounds of Formula II and Formula IV. It is filed as physicochemical. To be noted: the C-20 phosphite salt (Formula II) itself, read-out: Water-solubility of Comp of Formula II.
Where [4] appears, read: Topotecan 2 mg/kg, once every 4 days, intraperitoneal, 11th day.
Setting [5] is: Topotecan 2 mg/kg, once every 4 days, intraperitoneal, end (11th day after inoculation).
Setting [6] is: Topotecan 2 mg/kg, once every 4 days, intraperitoneal, initial.

Compound `CCc1c2c(nc3ccc(O)cc13)-c1cc3c(c(=O)n1C2)COC(=O)[C@]3(O)CC` [SN38, reference compound] yielded a Resistance index in series [1] of 290.
Turning to `CC[C@@]1(O)C(=O)OCc2c1cc1n(c2=O)Cc2cc3c(CN(C)C)c(O)ccc3nc2-1` [Topotecan, reference compound], the “anti-tumor effect on NCI-H929 xenografts in nude mice (in words)” value in series [2] (2 mg/kg) is “no significant anti-tumor effect”. Further, in series [2] (setting [4]), the “IR By RTV %” value was found to be 37.3%; the “IR By TW %” value came out at 52.0%; the “RTV (X ± SD)” value is reported as 25.3 ± 14.8; the “TW (X ± SD, g)” value amounted to 0.71 ± 0.44 g. Moreover, in series [2] (setting [5]), the “Bw (X ± SD, g) end” value is 19.2 ± 1.3 g and the “TV (X ± SD, mm^3) End” value was determined as 1123.2 ± 608.9 mm^3. In series [2] (setting [6]), the “Bw (X ± SD, g) initial” value is recorded as 17.2 ± 1.0 g and the “TV (X ± SD, mm^3) initial” value was found to be 45.9 ± 6.0 mm^3. In addition, the Resistance index in series [1] was 210.
Consider `CC[C@@]1(O[PH](=O)[O-])C(=O)OCc2c1cc1n(c2=O)Cc2cc3cc4c(cc3nc2-1)OCCO4.[Na+]` [WQ1102], for which, in series [1], the Resistance index is recorded as 15. The solubility in series [3] was above 10000 µg/mL.
Take `CCc1c2c(nc3cc4c(cc13)OCCO4)-c1cc3c(c(=O)n1C2)COC(=O)[C@@]3(CC)O[PH](=O)[O-].[Na+]` [WQ1103]: in series [3], the solubility is above 10000 µg/mL.
The same measure, in the same setting: under `CC[C@@]1(O[PH](=O)[O-])C(=O)OCc2c1cc1n(c2=O)Cc2cc3cc4c(cc3nc2-1)OCO4.[Na+]` [WQ1104] stands above 10000 µg/mL.
In the case of `CCc1c2c(nc3cc4c(cc13)OCO4)-c1cc3c(c(=O)n1C2)COC(=O)[C@@]3(CC)O[PH](=O)[O-].[Na+]` [WQ1105], the Resistance index in series [1] was 20. Besides, the solubility in series [3] was above 10000 µg/mL.
Regarding `CC[C@@]1(O[PH](=O)[O-])C(=O)OCc2c1cc1n(c2=O)Cc2cc3c(Cl)c4c(cc3nc2-1)OCO4.[Na+]` [WQ1106], the solubility in series [3] is above 10000 µg/mL.
Same read-out and setting: under `CCc1c2c(nc3ccccc13)-c1cc3c(c(=O)n1C2)COC(=O)[C@@]3(CC)O[PH](=O)[O-].[Na+]` [WQ1107] stands above 10000 µg/mL.
In series [1], `CCc1c2c(nc3ccc(C)cc13)-c1cc3c(c(=O)n1C2)COC(=O)[C@@]3(CC)O[PH](=O)[O-].[Na+]` [WQ1108] had a Resistance index of 38. Moreover, in series [3], the solubility was above 10000 µg/mL.
Take `CCc1c2c(nc3ccc(Cl)cc13)-c1cc3c(c(=O)n1C2)COC(=O)[C@@]3(CC)O[PH](=O)[O-].[Na+]` [WQ1109]: the solubility in series [3] is above 10000 µg/mL.
Same read-out and setting: under `CCc1c2c(nc3ccc(Br)cc13)-c1cc3c(c(=O)n1C2)COC(=O)[C@@]3(CC)O[PH](=O)[O-].[Na+]` [WQ1110] stands above 10000 µg/mL.
In turn, `CCc1c2c(nc3cc(F)c(F)cc13)-c1cc3c(c(=O)n1C2)COC(=O)[C@@]3(CC)O[PH](=O)[O-].[Na+]` [WQ1111] showed a Resistance index in series [1] of 7. Further, in series [3], the solubility was above 10000 µg/mL.
Regarding `CCc1c2c(nc3cc(F)c(C)cc13)-c1cc3c(c(=O)n1C2)COC(=O)[C@@]3(CC)O[PH](=O)[O-].[Na+]` [WQ1112], the solubility in series [3] is above 10000 µg/mL.
On the same count and under the same terms, the value for `CCc1c2c(nc3cc(Cl)c(Cl)cc13)-c1cc3c(c(=O)n1C2)COC(=O)[C@@]3(CC)O[PH](=O)[O-].[Na+]` [WQ1113] was above 10000 µg/mL.
Regarding `CC[C@@]1(O[PH](=O)[O-])C(=O)OCc2c1cc1n(c2=O)Cc2c-1nc1ccccc1c2/C=N/OC(C)(C)C.[Na+]` [WQ1114], the Resistance index in series [1] amounted to 19. In series [3], the solubility is above 10000 µg/mL.
For `CC[C@@]1(O[PH](=O)[O-])C(=O)OCc2c1cc1n(c2=O)Cc2c-1nc1ccccc1c2CC[Si](C)(C)C.[Na+]` [WQ1115], in that order: 25 and above 10000 µg/mL.
On the same counts, the results for `CC[C@@]1(O[PH](=O)[O-])C(=O)OCc2c1cc1n(c2=O)Cc2c-1nc1ccccc1c2[Si](C)(C)C(C)(C)C.[Na+]` [WQ1116] are 13 and above 10000 µg/mL.
On the same counts, the results for `CC[C@@]1(O[PH](=O)[O-])C(=O)OCc2c1cc1n(c2=O)Cc2cc3cc(Cl)ccc3nc2-1.[Na+]` [WQ1117] are 9 and above 10000 µg/mL.
Consider `CC[C@@]1(O[PH](=O)[O-])C(=O)OCc2c1cc1n(c2=O)Cc2cc3cc(C)ccc3nc2-1.[Na+]` [WQ1118], for which the Resistance index in series [1] is 67. Moreover, the solubility in series [3] was above 10000 µg/mL.
`CCc1ccc2nc3c(cc2c1)Cn1c-3cc2c(c1=O)COC(=O)[C@@]2(CC)O[PH](=O)[O-].[Na+]` [WQ1119]: the solubility in series [3] was above 10000 µg/mL.
For the compound `CCCc1ccc2nc3c(cc2c1)Cn1c-3cc2c(c1=O)COC(=O)[C@@]2(CC)O[PH](=O)[O-].[Na+]` [WQ1120], the solubility in series [3] is above 10000 µg/mL.
On the same count and under the same terms, under `CCCCc1ccc2nc3c(cc2c1)Cn1c-3cc2c(c1=O)COC(=O)[C@@]2(CC)O[PH](=O)[O-].[Na+]` [WQ1121] stands above 10000 µg/mL.
In the case of `CC[C@@]1(O[PH](=O)[O-])C(=O)OCc2c1cc1n(c2=O)Cc2c-1nc1ccccc1c2OC.[Na+]` [WQ1122], the Resistance index in series [1] amounted to 5. In addition, the solubility in series [3] was above 10000 µg/mL.
For `CC[C@@]1(O[PH](=O)[O-])C(=O)OCc2c1cc1n(c2=O)Cc2c-1nc1ccc(C)cc1c2OC.[Na+]` [WQ1123], in series [3], the solubility was above 10000 µg/mL.
Still for that read-out and setting: under `CCc1ccc2nc3c(cc2c1OC)Cn1c-3cc2c(c1=O)COC(=O)[C@@]2(CC)O[PH](=O)[O-].[Na+]` [WQ1124] stands above 10000 µg/mL.
In the case of `CCCc1ccc2nc3c(c(OC)c2c1)Cn1c-3cc2c(c1=O)COC(=O)[C@@]2(CC)O[PH](=O)[O-].[Na+]` [WQ1125], in series [3], the solubility was above 10000 µg/mL.
Same read-out and setting: under `CCCCc1ccc2nc3c(c(OC)c2c1)Cn1c-3cc2c(c1=O)COC(=O)[C@@]2(CC)O[PH](=O)[O-].[Na+]` [WQ1126] stands above 10000 µg/mL.
